In US20100267561A1, “HERBICIDAL PYRIDAZINONE DERIVATIVES” (priority 2007, published 2010):

Key:
Type in all cases: in vivo
[1] = test system: giant foxtail (Setaria faberi); experiment: Test A pre-/postemergence plant response
In short: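 Scores reflect visual plant injury relative to untreated controls on a 0–100 scale, recorded approximately 10 days after simultaneous preemergence soil spraying and postemergence spraying of one- to two-leaf seedlings grown in loam–sand.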

[2] = test system: johnsongrass (Sorghum halepense); experiment: Test B pre-/postemergence plant response; details: for Johnsongrass plant response rating: 8 g ai/ha
Description: (§1) Seeds of plant species selected from blackgrass (Alopecurus myosuroides), downy bromegrass (Bromus tectorum), green foxtail (Setaria viridis), Italian ryegrass (Lolium multiflorum), wheat (Triticum aestivum), wild oat (Avena fatua), catchweed bedstraw (Galium aparine), bermudagrass (Cynodon dactylon), surinam grass (Brachiaria decumbens), cocklebur (Xanthium strumarium), corn (Zea mays), large crabgrass (Digitaria sanguinalis), woolly cupgrass (Eriochloa villosa), giant foxtail (Setaria faberii), goosegrass (Eleusine indica), johnsongrass (Sorghum halepense), kochia (Kochia scoparia), lambsquarters (Chenopodium album), morningglory (Ipomoea coccinea), eastern black (E.B.) nightshade (Solanum ptycanthum), yellow nutsedge (Cyperus esculentus), pigweed (Amaranthus retroflexus), common ragweed (Ambrosia elation), Russian thistle (Salsola iberica), soybean (Glycine max), common (oilseed) sunflower (Helianthus annuus), and velvetleaf (Abutilon theophrasti) were planted and treated preemergence with test chemicals formulated in a non-phytotoxic solvent mixture which included a surfactant.
(§2) At the same time, plants selected from these crop and weed species and also winter barley (Hordeum vulgare), canarygrass (Phalaris minor), chickweed (Stellaria media) and windgrass (Apera spica-venti) were treated with postemergence applications of some of the test chemicals formulated in the same manner. Plants ranged in height from 2 to 18 cm (1- to 4-leaf stage) for postemergence treatments.
(§3) Plant species in the flooded paddy test consisted of rice (Oryza sativa), umbrella sedge (Cyperus difformis), ducksalad (Heteranthera limosa) and barnyardgrass (Echinochloa crus-galli) grown to the 2-leaf stage for testing. At time of treatment, test pots were flooded to 3 cm above the soil surface, treated by application of test compounds directly to the paddy water, and then maintained at that water depth for the duration of the test. Treated plants and controls were maintained in a greenhouse for 13 to 15 days, after which time all species were compared to controls and visually evaluated. Plant response ratings, summarized in Table B, are based on a scale of 0 to 100 where 0 is no effect and 100 is complete control. A dash (-) response means no test result.

[3] = test system: common (oilseed) sunflower (Helianthus annuus); experiment: Test B pre-/postemergence plant response; details: Preemergence
Description: as §1, §2, §3

[4] = test system: wheat (Triticum aestivum); experiment: Test B pre-/postemergence plant response; details: for Wheat plant response rating: 8 g ai/ha
Description: as §1, §2, §3

[5] = test system: bermudagrass (Cynodon dactylon); experiment: Test B pre-/postemergence plant response; details: for Bermudagrass plant response rating: 8 g ai/ha
Description: as §1, §2, §3

[6] = test system: goosegrass (Eleusine indica); experiment: Test B pre-/postemergence plant response; details: for Goosegrass plant response rating: 8 g ai/ha
Description: as §1, §2, §3

[7] = test system: velvetleaf (Abutilon theophrasti); experiment: Test B pre-/postemergence plant response; details: for Velvetleaf plant response rating: 8 g ai/ha
Description: as §1, §2, §3

[8] = test system: blackgrass (Alopecurus myosuroides); experiment: Test B pre-/postemergence plant response; details: for Blackgrass plant response rating: 8 g ai/ha
Description: as §1, §2, §3

soybean (Glycine max) = experiment: Test B pre-/postemergence plant response; details: for Soybean plant response rating: 8 g ai/ha
Description: as §1, §2, §3

[9] = test system: giant foxtail (Setaria faberii); experiment: Test B pre-/postemergence plant response; details: for Foxtail, Giant plant response rating: 8 g ai/ha
Description: as §1, §2, §3

[10] = test system: pigweed (Amaranthus retroflexus); experiment: Test B pre-/postemergence plant response; details: for Pigweed plant response rating: 8 g ai/ha
Description: as §1, §2, §3

[11] = test system: downy bromegrass (Bromus tectorum); experiment: Test B pre-/postemergence plant response; details: for Bromegrass, Downy plant response rating: 8 g ai/ha
Description: as §1, §2, §3

[12] = Postemergence, 16 g ai/ha, scale 0 to 100
[13] = Postemergence, 31 g ai/ha, scale 0 to 100, 0 no effect, 100 complete control
[14] = Postemergence, 62 g ai/ha, scale 0 to 100, 0 no effect, 100 complete control
[15] = Preemergence, 16 g ai/ha, scale 0 to 100 (0 no effect, 100 complete control)
[16] = Preemergence, 31 g ai/ha, 0 to 100 scale, 0 no effect, 100 complete control
[17] = Preemergence, 62 g ai/ha, scale 0 to 100
[18] = Preemergence, 31 g ai/ha, scale 0 to 100 (0 no effect, 100 complete control)
[19] = Preemergence, 62 g ai/ha, 0 to 100 scale, 0 no effect, 100 complete control

## CCc1cc(-c2ccc(Cl)cc2)nn1-c1c(OC(=O)OC(C)C)cnn(C)c1=O [Compound 41]
[1]; Postemergence, 31 g ai/ha, 0 to 100 scale (0 no effect, 100 complete control)
  Plant response rating, Foxtail, Giant: 70
[1]; Postemergence, 125 g ai/ha, 0 to 100 scale, 0 no effect, 100 complete control
  Plant response rating, Foxtail, Giant: 90
[1]; Preemergence, 31 g ai/ha, 0 to 100 scale, 0 is no effect, 100 is complete control
  Plant response rating, Foxtail, Giant: 90
[1]; Preemergence, 125 g ai/ha, 0 to 100 scale (0 no effect, 100 complete control)
  Plant response rating, Foxtail, Giant: 100
[2]; postemergence, 0-100 scale
  Johnsongrass plant response rating: 50
[2]; [12]
  Plant response rating, Johnsongrass: 50
[2]; [13]
  Plant response rating, Johnsongrass: 60
[2]; [14]
  Plant response rating, Johnsongrass: 75
[2]; [15]
  Plant response rating, Johnsongrass: 65
[2]; [16]
  Plant response rating, Johnsongrass: 70
[2]; [17]
  Plant response rating, Johnsongrass: 95
[2]; Preemergence, scale 0 to 100
  Johnsongrass plant response rating: 20
[3]; 16 g ai/ha, scale 0 to 100 (0 no effect, 100 complete control)
  Plant response rating, Sunflower: 0
[3]; 31 g ai/ha, scale 0 to 100 (0 no effect, 100 complete control)
  Plant response rating, Sunflower: 0
[3]; 62 g ai/ha, scale 0 to 100
  Plant response rating, Sunflower: 0
[3]; 8 g ai/ha, scale 0 to 100
  Sunflower plant response rating: 0
[4]; postemergence, 0-100 scale
  Wheat plant response rating: 80
[4]; [12]
  Plant response rating, Wheat: 85
[4]; [14]
  Plant response rating, Wheat: 85
[4]; [15]
  Plant response rating, Wheat: 15
[4]; [18]
  Plant response rating, Wheat: 60
[4]; [19]
  Plant response rating, Wheat: 100
[4]; Preemergence, scale 0 to 100
  Wheat plant response rating: 10
[5]; postemergence, 0-100 scale
  Bermudagrass plant response rating: 0
[5]; [12]
  Plant response rating, Bermudagrass: 0
[5]; [13]
  Plant response rating, Bermudagrass: 25
[5]; [14]
  Plant response rating, Bermudagrass: 95
[5]; Preemergence, scale 0 to 100 (0 no effect, 100 complete control)
  Bermudagrass plant response rating: 0
[5]; [15]
  Plant response rating, Bermudagrass: 0
[5]; [16]
  Plant response rating, Bermudagrass: 0
[5]; [17]
  Plant response rating, Bermudagrass: 0
[6]; postemergence, 0-100 scale
  Goosegrass plant response rating: 80
[6]; [12]
  Plant response rating, Goosegrass: 80
[6]; [13]
  Plant response rating, Goosegrass: 85
[6]; [14]
  Plant response rating, Goosegrass: 98
[6]; [15]
  Plant response rating, Goosegrass: 0
[6]; [16]
  Plant response rating, Goosegrass: 0
[6]; [17]
  Plant response rating, Goosegrass: 0
[6]; Preemergence, scale 0 to 100
  Goosegrass plant response rating: 0
[7]; postemergence, 0-100 scale
  Velvetleaf plant response rating: 0
[7]; [12]
  Plant response rating, Velvetleaf: 0
[7]; [14]
  Plant response rating, Velvetleaf: 0
[7]; [15]
  Plant response rating, Velvetleaf: 0
[7]; [18]
  Plant response rating, Velvetleaf: 0
[7]; [19]
  Plant response rating, Velvetleaf: 0
[7]; Preemergence, scale 0 to 100
  Velvetleaf plant response rating: 0
[8]; postemergence, 0-100 scale
  Blackgrass plant response rating: 85
[8]; [12]
  Plant response rating, Blackgrass: 90
[8]; [13]
  Plant response rating, Blackgrass: 95
[8]; [14]
  Plant response rating, Blackgrass: 95
[8]; [15]
  Plant response rating, Blackgrass: 100
[8]; [16]
  Plant response rating, Blackgrass: 100
[8]; [17]
  Plant response rating, Blackgrass: 100
[8]; Preemergence, scale 0 to 100
  Blackgrass plant response rating: 95
Soybean (Glycine max); postemergence, 0-100 scale
  Soybean plant response rating: 0
Soybean (Glycine max); [12]
  Plant response rating, Soybean: 0
Soybean (Glycine max); [14]
  Plant response rating, Soybean: 0
Soybean (Glycine max); [15]
  Plant response rating, Soybean: 0
Soybean (Glycine max); [18]
  Plant response rating, Soybean: 0
Soybean (Glycine max); [17]
  Plant response rating, Soybean: 0
Soybean (Glycine max); Preemergence, scale 0 to 100
  Soybean plant response rating: 0
[9]; postemergence, 0-100 scale
  Foxtail, Giant plant response rating: 100
[9]; [12]
  Plant response rating, Foxtail, Giant: 100
[9]; [13]
  Plant response rating, Foxtail, Giant: 100
[9]; [14]
  Plant response rating, Foxtail, Giant: 100
[9]; [15]
  Plant response rating, Foxtail, Giant: 0
[9]; [16]
  Plant response rating, Foxtail, Giant: 0
[9]; [17]
  Plant response rating, Foxtail, Giant: 98
[9]; Preemergence, scale 0 to 100
  Foxtail, Giant plant response rating: 0
[10]; postemergence, 0-100 scale
  Pigweed plant response rating: 0
[10]; [12]
  Plant response rating, Pigweed: 0
[10]; [13]
  Plant response rating, Pigweed: 0
[10]; [14]
  Plant response rating, Pigweed: 0
[10]; [15]
  Plant response rating, Pigweed: 0
[10]; [18]
  Plant response rating, Pigweed: 0
[10]; [17]
  Plant response rating, Pigweed: 0
[10]; Preemergence, scale 0 to 100
  Pigweed plant response rating: 0
[11]; postemergence, 0-100 scale
  Bromegrass, Downy plant response rating: 30
[11]; [12]
  Plant response rating, Bromegrass, Downy: 50
[11]; [13]
  Plant response rating, Bromegrass, Downy: 60
[11]; [14]
  Plant response rating, Bromegrass, Downy: 85
[11]; [15]
  Plant response rating, Bromegrass, Downy: 70
[11]; [16]
  Plant response rating, Bromegrass, Downy: 75
[11]; [17]
  Plant response rating, Bromegrass, Downy: 80
[11]; Preemergence, scale 0 to 100
  Bromegrass, Downy plant response rating: 70
